Measurements: publication PMC12102759 (Protein Science : A Publication of the Protein Society, 2025)
Like-named read-outs stand apart in the source and are kept apart here.

Tested on: PABPC1 PABC
Format: binding, human
Conditions: DMS-BM library, bait PABPC1 PABC, row aa = residue at this position; for DMS-derived PSSM value (averaged), position T1 / DMS-derived PSSM value, position T3: T = wild type; for DMS-derived PSSM value, position K9: K = wild type
[1] = prey ATXN2, TLNPNAKEFNPRSF(averaged) over the two overlapping peptides, L = wild type
[2] = prey ATXN2, TLNPNAKEFNPRSF(averaged) over the two overlapping peptides, N = wild type
[3] = prey ATXN2, peptide TLNPNAKEFNPRSFSQ, E = wild type
[4] = prey ATXN2, peptide KSTLNPNAKEFNPRSF, N = wild type
[5] = prey ATXN2, peptide TLNPNAKEFNPRSFSQ, R = wild type
[6] = prey ATXN2, peptide TLNPNAKEFNPRSFSQ, F = wild type
[7] = prey ATXN2, peptide TLNPNAKEFNPRSFSQ, N = wild type
[8] = prey ATXN2, TLNPNAKEFNPRSF(averaged) over the two overlapping peptides
[9] = prey ATXN2, TLNPNAKEFNPRSF(averaged) over the two overlapping peptides, P = wild type
[10] = prey ATXN2, TLNPNAKEFNPRSF(averaged) over the two overlapping peptides, A = wild type
[11] = prey ATXN2, peptide KSTLNPNAKEFNPRSF, L = wild type
[12] = prey ATXN2, peptide KSTLNPNAKEFNPRSF
[13] = prey ATXN2, peptide TLNPNAKEFNPRSFSQ, S = wild type
[14] = prey ATXN2, peptide KSTLNPNAKEFNPRSF, A = wild type
[15] = prey ATXN2, peptide TLNPNAKEFNPRSFSQ, P = wild type

TLNPNAKEFNPRSF(averaged) E8F (TLNPNAKFFNPRSF)
DMS-derived PSSM value (averaged), position E8 (prey ATXN2, TLNPNAKEFNPRSF(averaged) over the two overlapping peptides, E = wild type): 0

TLNPNAKEFNPRSF(averaged) F14W (TLNPNAKEFNPRSW)
DMS-derived PSSM value (averaged), position F14 (prey ATXN2, TLNPNAKEFNPRSF(averaged) over the two overlapping peptides, F = wild type): 0.01444

TLNPNAKEFNPRSF(averaged) L2P (TPNPNAKEFNPRSF)
DMS-derived PSSM value (averaged), position L2 [1]: 0.01878

TLNPNAKEFNPRSF(averaged) R12L (TLNPNAKEFNPLSF)
DMS-derived PSSM value (averaged), position R12 (prey ATXN2, TLNPNAKEFNPRSF(averaged) over the two overlapping peptides, R = wild type): 0.02116

TLNPNAKEFNPRSF(averaged) N5F (TLNPFAKEFNPRSF)
DMS-derived PSSM value (averaged), position N5 [2]: 0.03844

TLNPNAKEFNPRSFSQ E8T (TLNPNAKTFNPRSFSQ)
DMS-derived PSSM value, position E8 [3]: 0.09413

TLNPNAKEFNPRSF(averaged) N10E (TLNPNAKEFEPRSF)
DMS-derived PSSM value (averaged), position N10 [2]: 0.03135

KSTLNPNAKEFNPRSF N7F (KSTLNPFAKEFNPRSF)
DMS-derived PSSM value, position N7 [4]: 0.07049

TLNPNAKEFNPRSFSQ R12K (TLNPNAKEFNPKSFSQ)
DMS-derived PSSM value, position R12 [5]: 0.01776

TLNPNAKEFNPRSFSQ F14M (TLNPNAKEFNPRSMSQ)
DMS-derived PSSM value, position F14 [6]: 0.2558

TLNPNAKEFNPRSFSQ N3K (TLKPNAKEFNPRSFSQ)
DMS-derived PSSM value, position N3 [7]: 0

TLNPNAKEFNPRSF(averaged) N5T (TLNPTAKEFNPRSF)
DMS-derived PSSM value (averaged), position N5 [2]: 0.01041

TLNPNAKEFNPRSFSQ A6G (TLNPNGKEFNPRSFSQ)
DMS-derived PSSM value, position A6 (prey ATXN2, peptide TLNPNAKEFNPRSFSQ, A = wild type): 0

TLNPNAKEFNPRSF(averaged) T1L (LLNPNAKEFNPRSF)
DMS-derived PSSM value (averaged), position T1 [8]: 0.06577

TLNPNAKEFNPRSF(averaged) P4W (TLNWNAKEFNPRSF)
DMS-derived PSSM value (averaged), position P4 [9]: 0

TLNPNAKEFNPRSFSQ N5I (TLNPIAKEFNPRSFSQ)
DMS-derived PSSM value, position N5 [7]: 0.01004

TLNPNAKEFNPRSF(averaged) A6K (TLNPNKKEFNPRSF)
DMS-derived PSSM value (averaged), position A6 [10]: 0

TLNPNAKEFNPRSFSQ F14T (TLNPNAKEFNPRSTSQ)
DMS-derived PSSM value, position F14 [6]: 0.006633

TLNPNAKEFNPRSFSQ N10S (TLNPNAKEFSPRSFSQ)
DMS-derived PSSM value, position N10 [7]: 0.03126

KSTLNPNAKEFNPRSF L4G (KSTGNPNAKEFNPRSF)
DMS-derived PSSM value, position L4 [11]: 0

KSTLNPNAKEFNPRSF T3G (KSGLNPNAKEFNPRSF)
DMS-derived PSSM value, position T3 [12]: 0.0785

TLNPNAKEFNPRSF(averaged) N5R (TLNPRAKEFNPRSF)
DMS-derived PSSM value (averaged), position N5 [2]: 0.004628

TLNPNAKEFNPRSFSQ R12P (TLNPNAKEFNPPSFSQ)
DMS-derived PSSM value, position R12 [5]: 0.005288

TLNPNAKEFNPRSFSQ S15P (TLNPNAKEFNPRSFPQ)
DMS-derived PSSM value, position S15 [13]: 0.326

TLNPNAKEFNPRSFSQ F9W (TLNPNAKEWNPRSFSQ)
DMS-derived PSSM value, position F9 [6]: 0.6528

TLNPNAKEFNPRSFSQ S13T (TLNPNAKEFNPRTFSQ)
DMS-derived PSSM value, position S13 [13]: 0.105

TLNPNAKEFNPRSF(averaged) L2Q (TQNPNAKEFNPRSF)
DMS-derived PSSM value (averaged), position L2 [1]: 0

TLNPNAKEFNPRSFSQ N3P (TLPPNAKEFNPRSFSQ)
DMS-derived PSSM value, position N3 [7]: 0

KSTLNPNAKEFNPRSF A8V (KSTLNPNVKEFNPRSF)
DMS-derived PSSM value, position A8 [14]: 0.4196

TLNPNAKEFNPRSF(averaged) P11N (TLNPNAKEFNNRSF)
DMS-derived PSSM value (averaged), position P11 [9]: 0.02352

KSTLNPNAKEFNPRSF N5T (KSTLTPNAKEFNPRSF)
DMS-derived PSSM value, position N5 [4]: 0

TLNPNAKEFNPRSF(averaged) L2W (TWNPNAKEFNPRSF)
DMS-derived PSSM value (averaged), position L2 [1]: 0.07274

TLNPNAKEFNPRSFSQ F9N (TLNPNAKENNPRSFSQ)
DMS-derived PSSM value, position F9 [6]: 0

KSTLNPNAKEFNPRSF T3W (KSWLNPNAKEFNPRSF)
DMS-derived PSSM value, position T3 [12]: 0.01564

KSTLNPNAKEFNPRSF P13N (KSTLNPNAKEFNNRSF)
DMS-derived PSSM value, position P13 (prey ATXN2, peptide KSTLNPNAKEFNPRSF, P = wild type): 0.004405

TLNPNAKEFNPRSFSQ P11Y (TLNPNAKEFNYRSFSQ)
DMS-derived PSSM value, position P11 [15]: 0.04593

TLNPNAKEFNPRSF(averaged) L2G (TGNPNAKEFNPRSF)
DMS-derived PSSM value (averaged), position L2 [1]: 0

TLNPNAKEFNPRSF(averaged) N3H (TLHPNAKEFNPRSF)
DMS-derived PSSM value (averaged), position N3 [2]: 0

TLNPNAKEFNPRSFSQ S13I (TLNPNAKEFNPRIFSQ)
DMS-derived PSSM value, position S13 [13]: 0

TLNPNAKEFNPRSF(averaged) A6D (TLNPNDKEFNPRSF)
DMS-derived PSSM value (averaged), position A6 [10]: 0

TLNPNAKEFNPRSFSQ E8A (TLNPNAKAFNPRSFSQ)
DMS-derived PSSM value, position E8 [3]: 0.02248

KSTLNPNAKEFNPRSF K9G (KSTLNPNAGEFNPRSF)
DMS-derived PSSM value, position K9 [12]: 0.006369

TLNPNAKEFNPRSFSQ N3E (TLEPNAKEFNPRSFSQ)
DMS-derived PSSM value, position N3 [7]: 0

KSTLNPNAKEFNPRSF F11L (KSTLNPNAKELNPRSF)
DMS-derived PSSM value, position F11 (prey ATXN2, peptide KSTLNPNAKEFNPRSF, F = wild type): 0

TLNPNAKEFNPRSFSQ P11H (TLNPNAKEFNHRSFSQ)
DMS-derived PSSM value, position P11 [15]: 0.157

TLNPNAKEFNPRSF(averaged) P4K (TLNKNAKEFNPRSF)
DMS-derived PSSM value (averaged), position P4 [9]: 0

KSTLNPNAKEFNPRSF N5Q (KSTLQPNAKEFNPRSF)
DMS-derived PSSM value, position N5 [4]: 0

KSTLNPNAKEFNPRSF N7S (KSTLNPSAKEFNPRSF)
DMS-derived PSSM value, position N7 [4]: 0.04398

TLNPNAKEFNPRSFSQ L2N (TNNPNAKEFNPRSFSQ)
DMS-derived PSSM value, position L2 (prey ATXN2, peptide TLNPNAKEFNPRSFSQ, L = wild type): 0

TLNPNAKEFNPRSF(averaged) A6S (TLNPNSKEFNPRSF)
DMS-derived PSSM value (averaged), position A6 [10]: 0.04153

TLNPNAKEFNPRSF(averaged) P11R (TLNPNAKEFNRRSF)
DMS-derived PSSM value (averaged), position P11 [9]: 0.003178

KSTLNPNAKEFNPRSF K9F (KSTLNPNAFEFNPRSF)
DMS-derived PSSM value, position K9 [12]: 0.02411

TLNPNAKEFNPRSF(averaged) A6R (TLNPNRKEFNPRSF)
DMS-derived PSSM value (averaged), position A6 [10]: 0

KSTLNPNAKEFNPRSF N7H (KSTLNPHAKEFNPRSF)
DMS-derived PSSM value, position N7 [4]: 0.03167

TLNPNAKEFNPRSFSQ P11W (TLNPNAKEFNWRSFSQ)
DMS-derived PSSM value, position P11 [15]: 0.02291

TLNPNAKEFNPRSF(averaged) P4A (TLNANAKEFNPRSF)
DMS-derived PSSM value (averaged), position P4 [9]: 0.01026

TLNPNAKEFNPRSF(averaged) T1H (HLNPNAKEFNPRSF)
DMS-derived PSSM value (averaged), position T1 [8]: 0.01509

KSTLNPNAKEFNPRSF T3H (KSHLNPNAKEFNPRSF)
DMS-derived PSSM value, position T3 [12]: 0.01262

KSTLNPNAKEFNPRSF R14M (KSTLNPNAKEFNPMSF)
DMS-derived PSSM value, position R14 (prey ATXN2, peptide KSTLNPNAKEFNPRSF, R = wild type): 0.00585

TLNPNAKEFNPRSF(averaged) P4R (TLNRNAKEFNPRSF)
DMS-derived PSSM value (averaged), position P4 [9]: 0

KSTLNPNAKEFNPRSF L4W (KSTWNPNAKEFNPRSF)
DMS-derived PSSM value, position L4 [11]: 0

KSTLNPNAKEFNPRSF N12Q (KSTLNPNAKEFQPRSF)
DMS-derived PSSM value, position N12 [4]: 0.02863

KSTLNPNAKEFNPRSF N12G (KSTLNPNAKEFGPRSF)
DMS-derived PSSM value, position N12 [4]: 0.02172

KSTLNPNAKEFNPRSF N5Y (KSTLYPNAKEFNPRSF)
DMS-derived PSSM value, position N5 [4]: 0.01612

TLNPNAKEFNPRSFSQ E8D (TLNPNAKDFNPRSFSQ)
DMS-derived PSSM value, position E8 [3]: 0

TLNPNAKEFNPRSFSQ S13K (TLNPNAKEFNPRKFSQ)
DMS-derived PSSM value, position S13 [13]: 0.007933

TLNPNAKEFNPRSFSQ S13M (TLNPNAKEFNPRMFSQ)
DMS-derived PSSM value, position S13 [13]: 0.008683

TLNPNAKEFNPRSF(averaged) S13P (TLNPNAKEFNPRPF)
DMS-derived PSSM value (averaged), position S13 (prey ATXN2, TLNPNAKEFNPRSF(averaged) over the two overlapping peptides, S = wild type): 0.06349

KSTLNPNAKEFNPRSF A8G (KSTLNPNGKEFNPRSF)
DMS-derived PSSM value, position A8 [14]: 0

TLNPNAKEFNPRSFSQ F9L (TLNPNAKELNPRSFSQ)
DMS-derived PSSM value, position F9 [6]: 0
